Results reported in the CheMixHub viscosity set.

Assay: xn = mol fraction of the nth substance listed

CCCCN + CCCCO
Conditions | viscosity [mPa·s]
293.15 K, 101 kPa, x1 = 0.1 | 2.51
293.15 K, 101 kPa, x1 = 0.3 | 1.85
293.15 K, 101 kPa, x1 = 0.5 | 1.25
293.15 K, 101 kPa, x1 = 0.7 | 0.95
293.15 K, 101 kPa, x1 = 0.9 | 0.68
298.15 K, 100 kPa, x2 = 0.099 | 0.553
298.15 K, 100 kPa, x2 = 0.195 | 0.663
298.15 K, 100 kPa, x2 = 0.294 | 0.794
298.15 K, 100 kPa, x2 = 0.401 | 0.951
298.15 K, 100 kPa, x2 = 0.493 | 1.101
298.15 K, 100 kPa, x2 = 0.6 | 1.312
298.15 K, 100 kPa, x2 = 0.695 | 1.531
298.15 K, 100 kPa, x2 = 0.8 | 1.818
298.15 K, 100 kPa, x2 = 0.893 | 2.131
298.15 K, 101.32 kPa, x2 = 0.0983 | 0.5497
298.15 K, 101.32 kPa, x2 = 0.1986 | 0.6488
298.15 K, 101.32 kPa, x2 = 0.2972 | 0.7685
298.15 K, 101.32 kPa, x2 = 0.4004 | 0.9222
298.15 K, 101.32 kPa, x2 = 0.4976 | 1.085
298.15 K, 101.32 kPa, x2 = 0.5988 | 1.291
298.15 K, 101.32 kPa, x2 = 0.7009 | 1.518
298.15 K, 101.32 kPa, x2 = 0.7974 | 1.782
298.15 K, 101.32 kPa, x2 = 0.899 | 2.123
303.15 K, 101 kPa, x1 = 0.01068 | 2.228
303.15 K, 101 kPa, x1 = 0.02055 | 2.205
303.15 K, 101 kPa, x1 = 0.0277 | 2.185
303.15 K, 101 kPa, x1 = 0.04127 | 2.155
303.15 K, 101 kPa, x1 = 0.05004 | 2.135
303.15 K, 101 kPa, x1 = 0.05896 | 2.116
303.15 K, 101 kPa, x1 = 0.07244 | 2.087
303.15 K, 101 kPa, x1 = 0.08331 | 2.059
303.15 K, 101 kPa, x1 = 0.09019 | 2.04
303.15 K, 101.33 kPa, x1 = 0.092 | 2.08
303.15 K, 101.33 kPa, x1 = 0.1008 | 1.909
303.15 K, 101.33 kPa, x1 = 0.1886 | 1.829
303.15 K, 101.33 kPa, x1 = 0.2007 | 1.627
303.15 K, 101.33 kPa, x1 = 0.2824 | 1.565
303.15 K, 101.33 kPa, x1 = 0.3004 | 1.395
303.15 K, 101.33 kPa, x1 = 0.3824 | 1.314
303.15 K, 101.33 kPa, x1 = 0.4 | 1.191
303.15 K, 101.33 kPa, x1 = 0.5009 | 1.019
303.15 K, 101.33 kPa, x1 = 0.5186 | 1.036
303.15 K, 101.33 kPa, x1 = 0.6001 | 0.869
303.15 K, 101.33 kPa, x1 = 0.6186 | 0.8627
303.15 K, 101.33 kPa, x1 = 0.6997 | 0.734
303.15 K, 101.33 kPa, x1 = 0.7158 | 0.7221
303.15 K, 101.33 kPa, x1 = 0.7999 | 0.625
303.15 K, 101.33 kPa, x1 = 0.8131 | 0.6087
303.15 K, 101.33 kPa, x1 = 0.9001 | 0.536
303.15 K, 101.33 kPa, x1 = 0.9011 | 0.5224
313.15 K, 101.3 kPa, x2 = 0.0992 | 0.4434
313.15 K, 101.3 kPa, x2 = 0.1967 | 0.516
313.15 K, 101.3 kPa, x2 = 0.2981 | 0.602
313.15 K, 101.3 kPa, x2 = 0.398 | 0.7038
313.15 K, 101.3 kPa, x2 = 0.4956 | 0.8181
313.15 K, 101.3 kPa, x2 = 0.5979 | 0.9549
313.15 K, 101.3 kPa, x2 = 0.6978 | 1.108
313.15 K, 101.3 kPa, x2 = 0.8009 | 1.289
313.15 K, 101.3 kPa, x2 = 0.9 | 1.503
313.15 K, 101.33 kPa, x1 = 0.092 | 1.662
313.15 K, 101.33 kPa, x1 = 0.1008 | 1.518
313.15 K, 101.33 kPa, x1 = 0.1886 | 1.476
313.15 K, 101.33 kPa, x1 = 0.2007 | 1.305
313.15 K, 101.33 kPa, x1 = 0.2824 | 1.286
313.15 K, 101.33 kPa, x1 = 0.3004 | 1.12
313.15 K, 101.33 kPa, x1 = 0.3824 | 1.086
313.15 K, 101.33 kPa, x1 = 0.4 | 0.976
313.15 K, 101.33 kPa, x1 = 0.5009 | 0.843
313.15 K, 101.33 kPa, x1 = 0.5186 | 0.856
313.15 K, 101.33 kPa, x1 = 0.6001 | 0.73
313.15 K, 101.33 kPa, x1 = 0.6186 | 0.7186
313.15 K, 101.33 kPa, x1 = 0.6997 | 0.622
313.15 K, 101.33 kPa, x1 = 0.7158 | 0.6085
313.15 K, 101.33 kPa, x1 = 0.7999 | 0.539
313.15 K, 101.33 kPa, x1 = 0.8131 | 0.5227
313.15 K, 101.33 kPa, x1 = 0.9001 | 0.47
313.15 K, 101.33 kPa, x1 = 0.9011 | 0.4542
323.15 K, 101.33 kPa, x1 = 0.1008 | 1.228
323.15 K, 101.33 kPa, x1 = 0.2007 | 1.065
323.15 K, 101.33 kPa, x1 = 0.3004 | 0.92
323.15 K, 101.33 kPa, x1 = 0.4 | 0.803
323.15 K, 101.33 kPa, x1 = 0.5009 | 0.7
323.15 K, 101.33 kPa, x1 = 0.6001 | 0.615
323.15 K, 101.33 kPa, x1 = 0.6997 | 0.534
323.15 K, 101.33 kPa, x1 = 0.7999 | 0.467
323.15 K, 101.33 kPa, x1 = 0.9001 | 0.407

O=C([O-])c1ccccc1O.[Na+] + O
viscosity [mPa·s]
Conditions | 293.15 K | 298.15 K | 303.15 K | 308.15 K | 313.15 K | 318.15 K
100 kPa, x1 = 5.685e-05 | 1.003 | 0.8913 | 0.7982 | 0.7198 | 0.6537 | –
100 kPa, x1 = 0.0001129 | 1.006 | 0.8924 | 0.7983 | 0.7207 | 0.6543 | –
100 kPa, x1 = 0.0004518 | 1.013 | 0.8989 | 0.8049 | 0.7259 | 0.659 | –
100 kPa, x1 = 0.0009067 | 1.024 | 0.9079 | 0.8132 | 0.7334 | 0.6657 | –
100 kPa, x1 = 0.001366 | 1.037 | 0.9164 | 0.8198 | 0.7394 | 0.6711 | –
100 kPa, x1 = 0.001826 | 1.045 | 0.9259 | 0.8289 | 0.748 | 0.6781 | –
100 kPa, x1 = 0.002292 | 1.056 | 0.9367 | 0.8375 | 0.7552 | 0.6844 | –
100 kPa, x1 = 0.00276 | 1.067 | 0.9449 | 0.8458 | 0.7614 | 0.6908 | –
100 kPa, x1 = 0.003231 | 1.076 | 0.9506 | 0.8501 | 0.7666 | 0.6959 | –
101 kPa, x1 = 0.000472 | 1.014 | 0.9009 | – | – | – | –
101 kPa, x1 = 0.000925 | 1.025 | 0.9102 | – | – | – | –
101 kPa, x1 = 0.001 | 1.025 | 0.9152 | 0.8184 | 0.7362 | 0.6684 | 0.6111
101 kPa, x1 = 0.00135 | 1.036 | 0.9188 | – | – | – | –
101 kPa, x1 = 0.0018 | 1.046 | 0.9279 | – | – | – | –
101 kPa, x1 = 0.002 | 1.05 | 0.9359 | 0.8392 | 0.7538 | 0.6817 | 0.6235
101 kPa, x1 = 0.00224 | 1.057 | 0.937 | – | – | – | –
101 kPa, x1 = 0.002288 | – | 0.946 | 0.842 | 0.757 | 0.684 | –
101 kPa, x1 = 0.002647 | 1.067 | 0.9454 | – | – | – | –
101 kPa, x1 = 0.003578 | 1.089 | – | – | – | – | –
101 kPa, x1 = 0.004685 | – | 0.983 | 0.875 | 0.786 | 0.714 | –
101 kPa, x1 = 0.005317 | 1.131 | – | – | – | – | –
101 kPa, x1 = 0.007012 | 1.171 | – | – | – | – | –
101 kPa, x1 = 0.009424 | – | 1.083 | 0.963 | 0.863 | 0.781 | –
101 kPa, x1 = 0.01337 | – | 1.188 | 1.055 | 0.944 | 0.846 | –
101 kPa, x1 = 0.01919 | – | 1.354 | 1.195 | 1.063 | 0.95 | –
101 kPa, x1 = 0.02192 | – | 1.44 | 1.265 | 1.125 | 1.008 | –
101 kPa, x1 = 0.02737 | – | 1.628 | 1.423 | 1.261 | 1.132 | –
